Experiment [1] concerns Periplaneta americana. The experiment in a line: Insecticidal activity against Periplaneta americana (American cockroach) assessed as killing compound injected into abdomen of cockroach after 24 hr measured per insect. It is filed as functional.
In experiment [2] the test system is Periplaneta americana. The experiment in a line: Insecticidal activity against Periplaneta americana (American cockroach) assessed as killing compound injected into abdomen of cockroach after 24 hr in presence of 50 ug piperonyl butoxide oxidative metabolism inhibitor and 50 ug propargyl propyl benzenephosphonate inhibitor of hydrolytic measured per insect relative to compound alone. It is filed as functional.

Experiment [3] concerns Periplaneta americana. In words: Insecticidal activity against Periplaneta americana (American cockroach) assessed as killing compound injected into abdomen of cockroach after 24 hr in presence of 50 ug piperonyl butoxide oxidative metabolism inhibitor and 50 ug propargyl propyl benzenephosphonate inhibitor of hydrolytic measured per insect. Format: functional.
The subject of experiment [4] is Periplaneta americana. The experiment in a line: Insecticidal activity against Periplaneta americana (American cockroach) assessed as killing compound injected into abdomen of cockroach after 24 hr in presence of 50 ug propargyl propyl benzenephosphonate inhibitor of hydrolytic metabolism of tetramethrin pyrethroid measured per insect. It is filed as functional.
The test system of experiment [5] is Periplaneta americana. In words: Insecticidal activity against Periplaneta americana (American cockroach) assessed as killing compound injected into abdomen of cockroach after 24 hr in presence of 50 ug piperonyl butoxide oxidative metabolism inhibitor measured per insect. Format: functional.
The target in experiment [6] is T1, Nicotinic acetylcholine receptor alpha 5 subunit (Musca domestica) (UniProt A9XFY4).
T1 sequence (whole entry): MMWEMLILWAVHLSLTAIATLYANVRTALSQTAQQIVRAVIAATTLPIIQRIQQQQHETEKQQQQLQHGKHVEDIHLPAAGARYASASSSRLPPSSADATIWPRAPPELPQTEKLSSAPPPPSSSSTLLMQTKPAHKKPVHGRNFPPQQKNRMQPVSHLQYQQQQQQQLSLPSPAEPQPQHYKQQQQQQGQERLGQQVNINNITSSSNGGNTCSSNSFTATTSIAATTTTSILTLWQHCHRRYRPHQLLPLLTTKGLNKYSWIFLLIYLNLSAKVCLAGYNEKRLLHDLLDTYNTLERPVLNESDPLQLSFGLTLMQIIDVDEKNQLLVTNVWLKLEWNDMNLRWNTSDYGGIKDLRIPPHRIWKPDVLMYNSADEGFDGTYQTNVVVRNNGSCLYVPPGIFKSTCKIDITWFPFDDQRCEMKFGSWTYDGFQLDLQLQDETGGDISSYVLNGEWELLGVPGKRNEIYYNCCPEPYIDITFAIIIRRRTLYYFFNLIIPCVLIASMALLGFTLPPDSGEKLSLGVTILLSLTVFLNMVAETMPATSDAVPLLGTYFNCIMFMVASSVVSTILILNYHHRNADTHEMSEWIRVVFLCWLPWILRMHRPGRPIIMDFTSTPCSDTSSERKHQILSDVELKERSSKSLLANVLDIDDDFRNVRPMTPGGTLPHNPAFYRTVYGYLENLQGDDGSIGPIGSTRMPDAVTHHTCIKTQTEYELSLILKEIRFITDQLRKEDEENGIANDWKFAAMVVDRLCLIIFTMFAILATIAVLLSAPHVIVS
In words: Displacement of [3H]imidacloprid from Musca domestica (house fly)-head membrane nAChR relative to N,N'-(3,3'-(hexane-1,6-diyl)bis(1-((6-chloropyridin-3-yl)methyl)imidazolidin-3-yl-2-ylidene))dinitramide.

Experiment [7] addresses T2, Nicotinic acetylcholine receptor alpha 5 subunit (Musca domestica, UniProt A9XFY4).
T2 sequence (A9XFY4 whole entry): T1 sequence (whole entry)
The experiment in a line: Displacement of [3H]imidacloprid from Musca domestica (house fly)-head membrane nAChR. Background: Loss of bound radioactivity is the signal in a displacement assay; it reports binding, not function.

The subject of experiment [8] is Periplaneta americana. The experiment in a line: Insecticidal activity against Periplaneta americana (American cockroach) assessed as killing compound injected into abdomen of cockroach after 24 hr in presence of 50 ug propargyl propyl benzenephosphonate inhibitor of hydrolytic metabolism of tetramethrin pyrethroid measured per insect relative to compound alone. It is filed as functional.

Experiment [9] concerns Periplaneta americana. In words: Insecticidal activity against Periplaneta americana (American cockroach) assessed as killing compound injected into abdomen of cockroach after 24 hr in presence of 50 ug piperonyl butoxide oxidative metabolism inhibitor measured per insect relative to compound alone. It is filed as functional.
Experiment [10] has as its system Periplaneta americana. The experiment in a line: Insecticidal activity against Periplaneta americana (American cockroach) assessed as changes in frequency of firing in nerve cords in nerve preparation measured for every 30 secs immediately after treatment at 3x10'-6 M by electrophysiological method. Format: functional, organism-based. Particulars: TDE = time-dependent effect.

Experiment [11] has as its system Periplaneta americana. In words: Insecticidal activity against Periplaneta americana (American cockroach) assessed as changes in frequency of firing in nerve cords in nerve preparation measured for every 30 secs immediately after treatment at 9x10'-7 M by electrophysiological method. It is filed as functional. The conditions noted are these: TDE = time-dependent effect.

The structures appear in SMILES notation.

The term IC50 denotes the concentration needed to halve the response being measured. Low readings indicate greater potency in that assay, high ones weaker potency in that assay.

With `O=[N+]([O-])/N=C1\N(CCCCCCCCN2CCN(Cc3ccc(Cl)nc3)/C2=N/[N+](=O)[O-])CCN1Cc1ccc(Cl)nc1`, the MLD is 4.5 nmol in the experiment with Periplaneta americana [1] and 0.17 nmol in the experiment on Periplaneta americana [3]. Also, the Ratio with Periplaneta americana [2] is 26.
On the same counts, the results for `O=[N+]([O-])/N=C1\N(CCCCN2CCN(Cc3ccc(Cl)nc3)/C2=N/[N+](=O)[O-])CCN1Cc1ccc(Cl)nc1` are 11 nmol, 6.5 nmol and 2.
On to `O=[N+]([O-])/N=C1\N(C/C=C/CN2CCN(Cc3ccc(Cl)nc3)/C2=N/[N+](=O)[O-])CCN1Cc1ccc(Cl)nc1`, for which the MLD stood at 30 nmol in the experiment with Periplaneta americana [1] and 1.5 nmol with Periplaneta americana [3]. Also, the Ratio with Periplaneta americana [2] came to 20.
Consider `O=[N+]([O-])/N=C1/N(CCCCCCCN2CCN(Cc3ccc(Cl)nc3)/C2=N/[N+](=O)[O-])CCN1Cc1ccc(Cl)nc1` [Heptamethylene 1,7-bis-imadacloprid], for which the results for the MLD in the experiment with Periplaneta americana [1] and in the experiment on Periplaneta americana [3] were 2.8 nmol and 0.22 nmol, respectively. Further, in the experiment with Periplaneta americana [2], the Ratio is listed as 13.
On the same counts, the results for `O=[N+]([O-])/N=C1/N(CCCCCN2CCN(Cc3ccc(Cl)nc3)/C2=N/[N+](=O)[O-])CCN1Cc1ccc(Cl)nc1` are 3.9 nmol, 0.16 nmol and 24.
For `O=[N+]([O-])/N=C1\N(CCN2CCN(Cc3ccc(Cl)nc3)/C2=N/[N+](=O)[O-])CCN1Cc1ccc(Cl)nc1`, the MLD worked out at 2.2 nmol in the experiment with Periplaneta americana [4], 8.3 nmol with Periplaneta americana [5], 8.3 nmol in the experiment with Periplaneta americana [1] and 1.1 nmol in the experiment with Periplaneta americana [3]. Further, the Ratio in experiment [6] was 0.028; in the experiment on Periplaneta americana [2], 8; in the experiment on Periplaneta americana [8], 4; with Periplaneta americana [9], 1. In addition, the IC50 in experiment [7] was 110 µM.
Turning to `O=[N+]([O-])NC1=NCCN1Cc1ccc(Cl)nc1` [IMIDACLOPRID], the concentration for half-maximal inhibition (IC50) in experiment [7] is 0.02 µM.
Consider `O=[N+]([O-])/N=C1/N(CCCCCCCCCN2CCN(Cc3ccc(Cl)nc3)/C2=N/[N+](=O)[O-])CCN1Cc1ccc(Cl)nc1`, for which the MLD was 2.8 nmol in the experiment with Periplaneta americana [1] and 0.17 nmol with Periplaneta americana [3]. The Ratio in the experiment with Periplaneta americana [2] is on record as 16.
With `O=[N+]([O-])/N=C1\N(CCCCCCN2CCN(Cc3ccc(Cl)nc3)/C2=N/[N+](=O)[O-])CCN1Cc1ccc(Cl)nc1`, the MLD is 0.22 nmol in the experiment on Periplaneta americana [4], 0.58 nmol in the experiment with Periplaneta americana [5], 2.2 nmol with Periplaneta americana [1] and 0.29 nmol in the experiment with Periplaneta americana [3]. In addition, the Activity result in the experiment with Periplaneta americana [10] and in the experiment with Periplaneta americana [11] was “tde” in each case. For the same compound, in [7], the IC50 is 3.1 µM. The Ratio is listed as 8 in the experiment with Periplaneta americana [2], 10 with Periplaneta americana [8] and 4 in the experiment with Periplaneta americana [9].
For the compound `O=[N+]([O-])/N=C1\N(CCCCCCCCCCN2CCN(Cc3ccc(Cl)nc3)/C2=N/[N+](=O)[O-])CCN1Cc1ccc(Cl)nc1`, the MLD with Periplaneta americana [4] is 0.19 nmol; in the experiment on Periplaneta americana [5] it was 1.5 nmol; with Periplaneta americana [1], 3.7 nmol; in the experiment on Periplaneta americana [3], 0.23 nmol. Also, the Ratio was determined as 0.11 in [6], 16 in the experiment with Periplaneta americana [2], 19 in the experiment on Periplaneta americana [8] and 2 in the experiment on Periplaneta americana [9]. Also, in [7], the IC50 came out at 27 µM.
For the compound `O=[N+]([O-])/N=C1\NCCN1Cc1ccc(Cl)nc1` [IMIDACLOPRID], the MLD with Periplaneta americana [4] was determined as 0.19 nmol; with Periplaneta americana [5], 0.78 nmol; in the experiment on Periplaneta americana [1] it was 2.5 nmol; in the experiment with Periplaneta americana [3], 0.07 nmol. The Ratio was 160 in experiment [6], 36 with Periplaneta americana [2], 13 in the experiment with Periplaneta americana [8] and 3 with Periplaneta americana [9].
For `O=[N+]([O-])/N=C1\N(Cc2ccc(N3CCN(Cc4ccc(Cl)nc4)/C3=N\[N+](=O)[O-])cc2)CCN1Cc1ccc(Cl)nc1`, the MLD is listed as 2.7 nmol with Periplaneta americana [4], 6.7 nmol in the experiment with Periplaneta americana [5], 27 nmol with Periplaneta americana [1] and 0.54 nmol in the experiment with Periplaneta americana [3]. The Ratio is on record as 50 with Periplaneta americana [2], 10 in the experiment with Periplaneta americana [8] and 4 in the experiment with Periplaneta americana [9].
Consider `O=[N+]([O-])/N=C1\N(CC#CCN2CCN(Cc3ccc(Cl)nc3)/C2=N/[N+](=O)[O-])CCN1Cc1ccc(Cl)nc1`, for which the MLD with Periplaneta americana [1] was found to be 3.7 nmol; in the experiment on Periplaneta americana [3], 0.3 nmol. For the same compound, the Ratio in the experiment with Periplaneta americana [2] stood at 12.
Regarding `O=[N+]([O-])/N=C1/N(CCCN2CCN(Cc3ccc(Cl)nc3)/C2=N/[N+](=O)[O-])CCN1Cc1ccc(Cl)nc1`, the results for the MLD in the experiment with Periplaneta americana [1] and in the experiment on Periplaneta americana [3] were 4.9 nmol and 0.79 nmol, respectively. For the same compound, in the experiment on Periplaneta americana [2], the Ratio came to 6.
As for `O=[N+]([O-])/N=C1/N(CCCOCCCN2CCN(Cc3ccc(Cl)nc3)/C2=N/[N+](=O)[O-])CCN1Cc1ccc(Cl)nc1`, the MLD amounted to 0.3 nmol in the experiment on Periplaneta americana [4], 0.23 nmol in the experiment with Periplaneta americana [5], 5.9 nmol in the experiment with Periplaneta americana [1] and 0.3 nmol in the experiment with Periplaneta americana [3]. Besides, the Ratio in experiment [6] is 0.042; in the experiment on Periplaneta americana [2], 20; in the experiment on Periplaneta americana [8], 20; with Periplaneta americana [9], 26. Besides, in experiment [7], the IC50 turned out to be 73 µM.
Consider `O=[N+]([O-])/N=C1/N(Cc2ccc(Cl)nc2)CCN1Cc1cccc(N2CCN(Cc3ccc(Cl)nc3)/C2=N\[N+](=O)[O-])c1`, for which the values for the MLD with Periplaneta americana [1] and with Periplaneta americana [3] were 20 nmol and 1 nmol, respectively. For the same compound, the Ratio in the experiment on Periplaneta americana [2] was determined as 20.

Source of the values: ChEMBL document CHEMBL3046717, “Synthesis of Alkylene-Tethered Bis-Imidacloprid Derivatives as Highly Insecticidal and Nerve-Exciting Agents with Potent Affinity to [3H] Imidacloprid-Binding Sites on Nicotinic Acetylcholine Receptor” (J Pestic Sci, 2002).
